In ChEMBL document CHEMBL3885861, “Open TG-GATES”:

Species: Rattus norvegicus
Experiment: Open TG-GATES - Regimen: Single
Assay type: toxicity, organism-based, Sprague-Dawley
Design: regimen Single, gender Male, age 6 weeks
Conditions: in vivo, po, 500 mg/kg, route gavage, dose level High; for APTT / Bas / Eos / Fbg / Hb / Ht / Lym / MCH / MCHC / MCV / Mono / Neu / PT / Plat / RBC / Ret / WBC: tissue Blood; for KIDNEY_L / KIDNEY_R / KIDNEY_TOTAL: tissue Kidney; for LIVER: tissue Liver; for A/G / ALP / ALT / AST / BUN / CRE / Ca / Cl / DBIL / GLC / IP / K / LDH / Na / PL / RALB / TBIL / TC / TG / TP / gamma-GTP: tissue Plasma

Structure (SMILES): CN1C(=O)OC(C)(C)C1=O [TRIMETHADIONE]
- TERMINAL_BW (3 h): 212 g
- APTT (3 h): 16.8 s
- Bas (3 h): 0%
- Eos (3 h): 0.8%
- Fbg (3 h): 267.8 mg/dL
- Hb (3 h): 12.7 g/dL
- Ht (3 h): 38.3%
- Lym (3 h): 79.2%
- MCH (3 h): 21.5 pg
- MCHC (3 h): 33.2%
- MCV (3 h): 64.8 fL
- Mono (3 h): 2.4%
- Neu (3 h): 17%
- PT (3 h): 14 s
- Plat (3 h): 113.4 x10_4/uL
- RBC (3 h): 591.4 x10_4/ul
- Ret (3 h): 8.8%
- WBC (3 h): 80.3 x10_2/uL
- KIDNEY_L (3 h): 1 g
- KIDNEY_R (3 h): 0.9 g
- KIDNEY_TOTAL (3 h): 1.9 g
- LIVER (3 h): 9.1 g
- A/G (3 h): 0.9
- ALP (3 h): 1375.2 IU/L
- ALT (3 h): 39.6 IU/L
- AST (3 h): 70.6 IU/L
- BUN (3 h): 8.6 mg/dL
- CRE (3 h): 0.2 mg/dL
- Ca (3 h): 10.5 mg/dL
- Cl (3 h): 107.2 meq/L
- DBIL (3 h): 0.002 mg/dL
- GLC (3 h): 174.2 mg/dL
- IP (3 h): 8.8 mg/dL
- K (3 h): 4.2 meq/L
- LDH (3 h): 108 IU/L
- Na (3 h): 139.4 meq/L
- PL (3 h): 150.4 mg/dL
- RALB (3 h): 2.4 g/dL
- TBIL (3 h): 0.058 mg/dL
- TC (3 h): 84.2 mg/dL
- TG (3 h): 60.6 mg/dL
- TP (3 h): 5.2 g/dL
- gamma-GTP (3 h): 1 IU/L
- TERMINAL_BW (6 h): 209.4 g
- APTT (6 h): 16.1 s
- Bas (6 h): 0.2%
- Eos (6 h): 1.2%
- Fbg (6 h): 280.2 mg/dL
- Hb (6 h): 12.9 g/dL
- Ht (6 h): 38.9%
- Lym (6 h): 79.6%
- MCH (6 h): 21.1 pg
- MCHC (6 h): 33.1%
- MCV (6 h): 63.7 fL
- Mono (6 h): 1.6%
- Neu (6 h): 17%
- PT (6 h): 14.1 s
- Plat (6 h): 121.7 x10_4/uL
- RBC (6 h): 611.6 x10_4/ul
- Ret (6 h): 8.2%
- WBC (6 h): 94.3 x10_2/uL
- KIDNEY_L (6 h): 1 g
- KIDNEY_R (6 h): 0.9 g
- KIDNEY_TOTAL (6 h): 1.9 g
- LIVER (6 h): 8.5 g
- A/G (6 h): 0.9
- ALP (6 h): 1302 IU/L
- ALT (6 h): 31 IU/L
- AST (6 h): 66.8 IU/L
- BUN (6 h): 8.2 mg/dL
- CRE (6 h): 0.2 mg/dL
- Ca (6 h): 10.6 mg/dL
- Cl (6 h): 107.2 meq/L
- DBIL (6 h): 0 mg/dL
- GLC (6 h): 173.2 mg/dL
- IP (6 h): 9.4 mg/dL
- K (6 h): 4.1 meq/L
- LDH (6 h): 72 IU/L
- Na (6 h): 141 meq/L
- PL (6 h): 139.2 mg/dL
- RALB (6 h): 2.4 g/dL
- TBIL (6 h): 0.058 mg/dL
- TC (6 h): 80.2 mg/dL
- TG (6 h): 35.8 mg/dL
- TP (6 h): 5.2 g/dL
- gamma-GTP (6 h): 1.4 IU/L
- TERMINAL_BW (9 h): 209 g
- APTT (9 h): 15.6 s
- Bas (9 h): 0%
- Eos (9 h): 0.8%
- Fbg (9 h): 253.2 mg/dL
- Hb (9 h): 12.6 g/dL
- Ht (9 h): 37.9%
- Lym (9 h): 75.2%
- MCH (9 h): 21.4 pg
- MCHC (9 h): 33.4%
- MCV (9 h): 64.3 fL
- Mono (9 h): 1.8%
- Neu (9 h): 21.8%
- PT (9 h): 14.5 s
- Plat (9 h): 117.7 x10_4/uL
- RBC (9 h): 589.4 x10_4/ul
- Ret (9 h): 8%
- WBC (9 h): 81.5 x10_2/uL
- KIDNEY_L (9 h): 1 g
- KIDNEY_R (9 h): 1 g
- KIDNEY_TOTAL (9 h): 2 g
- LIVER (9 h): 8.2 g
- A/G (9 h): 0.9
- ALP (9 h): 1539.2 IU/L
- ALT (9 h): 29 IU/L
- AST (9 h): 65.4 IU/L
- BUN (9 h): 7.6 mg/dL
- CRE (9 h): 0.2 mg/dL
- Ca (9 h): 10.2 mg/dL
- Cl (9 h): 105.8 meq/L
- DBIL (9 h): 0 mg/dL
- GLC (9 h): 158.4 mg/dL
- IP (9 h): 10.3 mg/dL
- K (9 h): 3.8 meq/L
- LDH (9 h): 69.4 IU/L
- Na (9 h): 140.6 meq/L
- PL (9 h): 127.8 mg/dL
- RALB (9 h): 2.4 g/dL
- TBIL (9 h): 0.056 mg/dL
- TC (9 h): 67.4 mg/dL
- TG (9 h): 28.2 mg/dL
- TP (9 h): 5.1 g/dL
- gamma-GTP (9 h): 1.2 IU/L
- TERMINAL_BW (24 h): 215.3 g
- APTT (24 h): 17.7 s
- Bas (24 h): 0%
- Eos (24 h): 0.8%
- Fbg (24 h): 286.8 mg/dL
- Hb (24 h): 13.6 g/dL
- Ht (24 h): 40.5%
- Lym (24 h): 78%
- MCH (24 h): 21.1 pg
- MCHC (24 h): 33.6%
- MCV (24 h): 62.7 fL
- Mono (24 h): 2.6%
- Neu (24 h): 18.4%
- PT (24 h): 13.8 s
- Plat (24 h): 129.1 x10_4/uL
- RBC (24 h): 646.2 x10_4/ul
- Ret (24 h): 6.9%
- WBC (24 h): 101.5 x10_2/uL
- KIDNEY_L (24 h): 0.9 g
- KIDNEY_R (24 h): 1 g
- KIDNEY_TOTAL (24 h): 1.9 g
- LIVER (24 h): 9.7 g
- A/G (24 h): 0.9
- ALP (24 h): 1799.8 IU/L
- ALT (24 h): 49.4 IU/L
- AST (24 h): 82.2 IU/L
- BUN (24 h): 13 mg/dL
- CRE (24 h): 0.2 mg/dL
- Ca (24 h): 10.6 mg/dL
- Cl (24 h): 101.6 meq/L
- DBIL (24 h): 0.006 mg/dL
- GLC (24 h): 165.2 mg/dL
- IP (24 h): 7.4 mg/dL
- K (24 h): 3.9 meq/L
- LDH (24 h): 96.8 IU/L
- Na (24 h): 144 meq/L
- PL (24 h): 137.2 mg/dL
- RALB (24 h): 2.6 g/dL
- TBIL (24 h): 0.046 mg/dL
- TC (24 h): 75.6 mg/dL
- TG (24 h): 99.4 mg/dL
- TP (24 h): 5.6 g/dL
- gamma-GTP (24 h): 1 IU/L
